Test [1] addresses T1, OASS (O-acetylserine sulfhydrylase) (Arabidopsis thaliana, UniProt P47998). Description: biochemical.
Test [2] concerns the target T1, OASS (O-acetylserine sulfhydrylase). Nature of the test: fluorescence polarization competition. Type of test: binding.

The values below come from article doi:10.1101/2024.02.03.578754v1 (biorxiv, 2024).

T1 sequence (P47998 whole entry): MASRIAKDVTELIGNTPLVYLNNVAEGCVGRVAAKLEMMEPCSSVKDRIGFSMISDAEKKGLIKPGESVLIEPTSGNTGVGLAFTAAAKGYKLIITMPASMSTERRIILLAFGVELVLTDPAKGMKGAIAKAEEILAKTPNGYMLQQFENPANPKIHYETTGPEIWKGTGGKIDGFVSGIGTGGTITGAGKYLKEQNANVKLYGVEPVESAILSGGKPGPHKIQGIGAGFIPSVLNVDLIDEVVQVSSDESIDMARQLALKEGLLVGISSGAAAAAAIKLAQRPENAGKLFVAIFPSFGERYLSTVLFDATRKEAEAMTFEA

On to `NCCc1ccc(-c2csc(NC(=O)c3ccccc3-c3ccccc3C(=O)O)n2)cc1` [PJ13], for which, in test [1], the IC50 was determined as 2 µM.

`O=C(O)c1ccccc1-c1ccccc1C(=O)Nc1nc(-c2ccc(Cl)cc2Cl)cs1` [PJ15] returned an IC50 in test [2] of 4.7 µM. With `CC(C)Cc1ccc(-c2csc(NC(=O)c3ccccc3-c3ccccc3C(=O)O)n2)cc1` [PJ14], the IC50 was 4.8 µM in test [1] and 5.4 µM in test [2]. Molecule `Nc1cc(F)ccc1-c1csc(NC(=O)c2ccccc2-c2ccccc2C(=O)O)n1` [compound 17] returned an IC50 in test [1] of 2.7 µM.

In test [1], `O=C(Nc1cccc(NC(=O)c2ccccc2-c2ccccc2C(=O)O)c1)c1nccs1` [compound 11, 11] yielded an IC50 of 10.1 µM. In the case of `O=C(O)c1ccccc1-c1cccnc1C(=O)Nc1nc(-c2ccc(Cl)cc2Cl)cs1` [compound 18], in test [1] (read-out: FP IC50, inhibitor), the IC50 was found to be 12.2 µM.

Consider `O=C(O)c1ccccc1-c1ccccc1C(=O)Nc1cccc(-c2nc3ccccc3[nH]2)c1` [PJ8], for which the IC50 in test [1] (read-out: FP IC50, inhibitor) amounted to 4.1 µM. In test [2], `COc1ccc(-c2cc(NC(=O)c3ccccc3-c3ccccc3C(=O)O)n(CCO)n2)cc1` [PJ34] yielded an IC50 of 50 µM.

As to `COc1ccc(-c2nc(NC(=O)c3ccccc3-c3ccccc3C(=O)O)sc2C)cc1` [compound 33, 33], inhibition in test [1] was half-maximal at 6.7 µM (IC50).
